The results in this text go back to patent US20200405794A1, “PHARMACEUTICAL COMPOSITION FOR PREVENTING OR TREATING CANCER […] AND H[…] EFFECTIVE COMPONENTS” (priority 2018, published 2020).

The subject of data set [1] is 4T1 cancer cell line-implanted mice. The data set is described as follows: 4T1 I: tumor size in mouse breast cancer cell-implanted mice. As to conditions: 10 days; OTS-412 1×10^7 pfu intratumorally once; hydroxyurea 30 mg/kg intraperitoneally once a day; n=4. The class given is in vivo, Balb/c mice.
Data set [2] shares this test system. The data set is described as follows: 4T1 III: tumor size and survival with high-dose hydroxyurea. The class given is in vivo, Balb/c mice. The following applies: 17 days; OTS-412 1×10^7 pfu intratumorally once; high-dose hydroxyurea 90 mg/kg intraperitoneally once a day.
In data set [3] the test system is NCI-H460 lung cancer cells-implanted mice. The data set is described as follows: Tumor size in human lung cancer cell (NCI-H460)-implanted mice. The format is in vivo, Balb/c nu/nu mice. The following applies: day 15; OTS-412 1×10^5 pfu twice (5 days apart); hydroxyurea 20 mg/kg once daily.
Data set [4] deals with HCT-116 cancer cell line-implanted mice. The data set is described as follows: Tumor size in human colorectal cancer cell (HCT-116)-implanted mice. The class given is in vivo, Balb/c nu/nu mice. As to conditions: day 28; hydroxyurea only, once daily; n=5.
For data set [5] the following is noted: day 21; OTS-412 1×10^7 pfu twice or hydroxyurea 30 mg/kg, each alone; n=10.

Consider hydroxyurea, for which the tumor size increase in data set [1] is ~5 times; in data set [2] it was ~3.5 times; in data set [3] it was 9 times; in data set [4] it was 11 times. For the same substance, the body weight loss entry in data set [5] is “around 10%”.
